These are literature values, as cited in patent US20090048110A1, “Orchid Culturing Method” (priority 2005, published 2009).

The subject of this series is Dendrobium. The conditions noted are these: application to the mature pseudobulbs, but not the developing ones.

In the case of `c1ccc(CNc2ncnc3nc[nH]c23)cc1` [6-BAP, 6-benzylaminopurine], the triggering of spiking result is “shown to trigger spiking”.
